Test systems include NCI-H23 lung; CAKI-1 renal; SN12C renal; UACC-257 melanoma; M19-MEL melanoma; SR leukemia; DMS 273 small cell lung; HL-60(TB) leukemia; SK-MEL-28 melanoma; DMS 114 small cell lung; XF 498 CNS; NCI-H460 lung.
What all share (assay): inhibition of tumour cell growth, NCI panel, 48 h

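Results reflect a 48-hour exposure of cells in 96-well plates to compound at five concentrations. TGI marks complete inhibition of growth.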 Bounds are passed on as bounds.

For the compound `CC(=O)OCC1OC(n2c(O)c(N=NC(N)=S)c3ccc([N+](=O)[O-])cc32)C(OC(C)=O)C1OC(C)=O` (configuration not stated), the TGI was 42.1 µM with NCI-H23 lung; more than 100 µM with CAKI-1 renal; more than 100 µM with SN12C renal; more than 100 µM with UACC-257 melanoma; 38.3 µM in the test with M19-MEL melanoma; 60.2 µM in the test on SR leukemia. The TGI in the test with DMS 273 small cell lung is 57.5 µM; in the test on HL-60(TB) leukemia, 62.7 µM; with SK-MEL-28 melanoma, more than 100 µM; in the test with DMS 114 small cell lung, 61.9 µM; with XF 498 CNS it was 94.7 µM; in the test with NCI-H460 lung, 66.2 µM.
As for `CN1C(=O)N(c2nc3ccccc3[nH]2)C(C)(C)C1=O`, the TGI in the test with NCI-H23 lung, in the test with SN12C renal, with UACC-257 melanoma, in the test with M19-MEL melanoma, in the test with SR leukemia and in the test with DMS 273 small cell lung was more than 100 µM throughout. Further, the TGI in the test with HL-60(TB) leukemia, with SK-MEL-28 melanoma, in the test on DMS 114 small cell lung and in the test on XF 498 CNS was more than 100 µM in each case.
For the compound `COc1ccc(/C=C/c2nc(=S)[nH][nH]2)cc1OC`, the TGI with NCI-H23 lung, with CAKI-1 renal, in the test with SN12C renal, in the test on UACC-257 melanoma, in the test with M19-MEL melanoma and in the test on SR leukemia was more than 100 µM each time. Also, the TGI in the test with DMS 273 small cell lung, in the test on HL-60(TB) leukemia, in the test on SK-MEL-28 melanoma, with DMS 114 small cell lung, with XF 498 CNS and in the test on NCI-H460 lung was more than 100 µM in each case.
In the case of `CCC(=O)CCC1=Nc2nnc(CCCCc3nnc4n3C(=O)C(CCC(=O)CC)=N4)n2C1=O`, the TGI in the test with NCI-H23 lung, with CAKI-1 renal, with SN12C renal, with UACC-257 melanoma, in the test with M19-MEL melanoma and with DMS 273 small cell lung was more than 100 µM in each case. For the same compound, the TGI with HL-60(TB) leukemia, with SK-MEL-28 melanoma, in the test on DMS 114 small cell lung, in the test on XF 498 CNS and with NCI-H460 lung was more than 100 µM throughout.
With `CCOC(OC1=C(C#N)CCCC1)C(CC)[Se]c1ccccc1[N+](=O)[O-]` (configuration not stated), the TGI in the test with NCI-H23 lung was 31.3 µM; in the test on CAKI-1 renal it was more than 100 µM; in the test with SN12C renal, 42.7 µM; in the test with UACC-257 melanoma, more than 100 µM; with M19-MEL melanoma, 37.2 µM; in the test with SR leukemia, 38.9 µM. Besides, the TGI was 36.2 µM in the test on DMS 273 small cell lung; 46.1 µM in the test on HL-60(TB) leukemia; 89.9 µM with SK-MEL-28 melanoma; 30.1 µM in the test on DMS 114 small cell lung; 61.5 µM in the test on XF 498 CNS; more than 100 µM in the test with NCI-H460 lung.
Regarding `CC(O)C1OC(n2ccc(=O)[nH]c2=O)CC1n1cncn1` (configuration not stated), the TGI in the test on NCI-H23 lung, with CAKI-1 renal, with SN12C renal, with UACC-257 melanoma, in the test on M19-MEL melanoma and with SR leukemia was more than 100 µM throughout. In addition, the TGI with DMS 273 small cell lung, in the test on HL-60(TB) leukemia, in the test with SK-MEL-28 melanoma, with DMS 114 small cell lung, in the test on XF 498 CNS and in the test with NCI-H460 lung was more than 100 µM in each case.
Turning to `C[Si](C)(C)/C=C/CN1C(=O)CCC1=O`, the TGI in the test on NCI-H23 lung, in the test on SN12C renal, with M19-MEL melanoma, in the test with SR leukemia, with DMS 273 small cell lung and with HL-60(TB) leukemia was more than 100 µM throughout. Moreover, the TGI with SK-MEL-28 melanoma, in the test on DMS 114 small cell lung, with XF 498 CNS and with NCI-H460 lung was more than 100 µM throughout.
`CC(C)=CCOc1ccc(-c2coc3cc4c(c(O)c3c2=O)C=CC(C)(C)O4)cc1`: the TGI in the test on NCI-H23 lung, with SN12C renal, in the test on UACC-257 melanoma, in the test on M19-MEL melanoma, with SR leukemia and in the test with HL-60(TB) leukemia was more than 100 µM in each case. The TGI in the test on SK-MEL-28 melanoma, in the test on DMS 114 small cell lung, with XF 498 CNS and in the test with NCI-H460 lung was more than 100 µM in each case.
For `C/C(=N/N)c1sc(-c2nc(C)c(/C(C)=N\N)s2)nc1C`, the TGI in the test on NCI-H23 lung was more than 100 µM; in the test on CAKI-1 renal, more than 100 µM; in the test with SN12C renal, more than 100 µM; in the test on UACC-257 melanoma, more than 100 µM; in the test on M19-MEL melanoma it was more than 100 µM; in the test with SR leukemia, 36.4 µM. For the same compound, the TGI in the test on DMS 273 small cell lung is more than 58.8 µM; in the test with HL-60(TB) leukemia, more than 69.3 µM; in the test with SK-MEL-28 melanoma, more than 100 µM; with DMS 114 small cell lung, more than 63.8 µM; in the test with XF 498 CNS, more than 100 µM; in the test with NCI-H460 lung it was more than 100 µM.
Regarding `O=C1C2C3C=C4c5ccccc5N(c5ccccc5)C4([C@@H]2C(=O)N1c1ccc(F)cc1)[C@H]1C(=O)N(c2ccc(F)cc2)C(=O)[C@@H]31` (some centres not stated), the TGI in the test with NCI-H23 lung, with SN12C renal, with UACC-257 melanoma, in the test on M19-MEL melanoma, with SR leukemia and in the test on HL-60(TB) leukemia was more than 100 µM throughout. Also, the TGI in the test on SK-MEL-28 melanoma, in the test with DMS 114 small cell lung and in the test on XF 498 CNS was more than 100 µM each time.
With `CC1OC(CC2C=CCc3c(O)c4c(c(O)c32)C(=O)c2ccccc2C4=O)CC(NC(=O)C(F)(F)F)C1O` (configuration not stated), the TGI stood at 20.7 µM in the test on NCI-H23 lung; 20.7 µM with CAKI-1 renal; 18.2 µM in the test with SN12C renal; 26.8 µM with UACC-257 melanoma; 21.1 µM in the test on M19-MEL melanoma; 13.5 µM with SR leukemia. Further, the TGI with DMS 273 small cell lung was determined as 19.7 µM; in the test with HL-60(TB) leukemia, 26.7 µM; in the test with SK-MEL-28 melanoma it was 16.1 µM; with DMS 114 small cell lung, 26.8 µM; in the test with XF 498 CNS, 14.6 µM; with NCI-H460 lung, 24.1 µM.

The record behind these values is PubChem BioAssay (NCI).
